Test results as given in PMC12162962, “The inhibitory potential of three scorpion venom peptides against multidrug-resistant Klebsiella pnemoniae” (Frontiers in Microbiology, 2025).
No end group written: not given here.

How the values were obtained:
K. pneumoniae = test: microbe, parasite or virus in culture; assay type: cell-based, Klebsiella pneumoniae
Experimental: To assess the combined effect of peptides and antibiotics, a checkerboard test was performed. An inoculum of K. pneumoniae at 2 × 10^5 CFU/mL was used for the assay. Serial dilutions of peptides and meropenem were executed, and 10 μL of peptide and antibiotic were added into the 96-well plate, individually and/or in combination. The plate was incubated for 24 h to 37°C and the combinatorial effect was calculated as an index of fractional inhibitory concentration (FICI) with the following formula ([Giugliano et al., 2023]).
FICI=MICmeropenem in combination/MICmeropenem+MICpeptide in combination/MICpeptide
• FICI ≤ 0.5, synergy. • 0.5 < FICI ≤ 1.0, partial synergy. • […], no interaction. • FICI > 4.0, antagonism.

[1] = test system: K. pneumoniae 1746 (VIM, class B); test: Broth microdilution MIC/MBC, clinical isolate; assay type: cell-based, Klebsiella pneumoniae; conditions: clinical isolate 1746, VIM; for MIC: rectal swab, broth microdilution, 95% growth inhibition
Experimental: (§1) Antibacterial activity of peptides was conducted against a panel of bacterial strains both Gram-positive (Staphylococcus aureus ATCC 6538, Enterococcus faecalis ATCC 29212, Listeria monocytogenes MB 677), and Gram-negative (E. coli ATCC 11229, K. pneumoniae ATCC 10031, Pseudomonas aeruginosa O1, Burkordelia cepacea LGM16656). The analysis has been extended to clinical isolates of K. pneumoniae carbapenemases producers isolated and characterized at the Microbiology Laboratory of the University Hospital “Luigi Vanvitelli,” Naples, Italy, using a BD Phoenix M50 instrument (Becton, Dickinson and Company, Franklin Lakes, NJ, USA) and listed in Table 1. The test was carried out as reported elsewhere ([Folliero et al., 2022]). The final bacterial concentration inoculated in the 96-well plate was 1 × 10^5 CFU/mL. Vancomycin (5 μg/mL) and meropenem (10 μg/mL) (Burlington, MA, USA) were used as positive control (CTRL+) against Gram-positive and Gram-negative bacteria, respectively.
(§2) The concentration of peptides inhibiting 95% bacterial growth was recorded as MIC. After setting the MIC value, 50 μL were taken from the 2MIC, 1MIC, and ½ MIC and spotted on MHA. The plates were incubated for 18 h at 37°C. The number of colony-forming units was calculated, and MBC was recorded as the lowest concentration of peptide capable of killing 99.9% of the bacterial load after 18 h of incubation.

K. pneumoniae ATCC 10031 = test: Broth microdilution MIC/MBC; assay type: cell-based, Klebsiella pneumoniae; conditions: reference strain ATCC 10031; for MIC: broth microdilution, 1 × 10^5 CFU/mL, concentration inhibiting 95% bacterial growth, triplicate; for MBC: lowest concentration killing 99.9% of the bacterial load after 18 h at 37°C on MHA
Experimental: as §1, §2

S. thyphimurium = test: Broth microdilution MIC/MBC; assay type: cell-based; conditions: for MIC: broth microdilution, 1 × 10^5 CFU/mL, concentration inhibiting 95% bacterial growth, triplicate; for MBC: lowest concentration killing 99.9% of the bacterial load after 18 h at 37°C on MHA
[2] = test system: Enterococcus faecalis ATCC 29212; test: Broth microdilution MIC/MBC; assay type: cell-based; conditions: for MIC: broth microdilution, 1 × 10^5 CFU/mL, concentration inhibiting 95% bacterial growth, triplicate; for MBC: lowest concentration killing 99.9% of the bacterial load after 18 h at 37°C on MHA
Experimental: as §1, §2

[3] = test system: Staphylococcus aureus ATCC 6538; test: Broth microdilution MIC/MBC; assay type: cell-based; conditions: for MIC: broth microdilution, 1 × 10^5 CFU/mL, concentration inhibiting 95% bacterial growth, triplicate; for MBC: lowest concentration killing 99.9% of the bacterial load after 18 h at 37°C on MHA
Experimental: as §1, §2

E. coli ATCC 11229 = test: Broth microdilution MIC/MBC; assay type: cell-based; conditions: for MIC: broth microdilution, 1 × 10^5 CFU/mL, concentration inhibiting 95% bacterial growth, triplicate; for MBC: lowest concentration killing 99.9% of the bacterial load after 18 h at 37°C on MHA
Experimental: as §1, §2

[4] = test system: Listeria monocytogenes MB 677; test: Broth microdilution MIC/MBC; assay type: cell-based; conditions: for MIC: broth microdilution, 1 × 10^5 CFU/mL, concentration inhibiting 95% bacterial growth, triplicate; for MBC: lowest concentration killing 99.9% of the bacterial load after 18 h at 37°C on MHA
Experimental: as §1, §2

[5] = test system: Burkordelia cepacea LGM16656 (B. cepacia); test: Broth microdilution MIC/MBC; assay type: cell-based; conditions: for MIC: broth microdilution, 1 × 10^5 CFU/mL, concentration inhibiting 95% bacterial growth, triplicate
Experimental: as §1, §2

[6] = test system: Pseudomonas aeruginosa O1; test: Broth microdilution MIC/MBC; assay type: cell-based; conditions: 1 × 10^5 CFU/mL, concentration inhibiting 95% bacterial growth, triplicate
Experimental: as §1, §2

[7] = test system: HaCaT cell line (human keratinocytes cells); test: MTT cytotoxicity on HaCaT cells; assay type: cell-based; conditions: 100 μM, 24 h
Experimental: Peptides cytotoxicity was evaluated on the HaCaT cell line (human keratinocytes cells) obtained from the CLS–Cell Lines Service (Eppelheim, Germany). The cell monolayer was treated with different peptide concentrations from 3 to 100 μM for 24 h. Then, methylthiazolyldiphenyl-tetrazolium bromide (MTT) (Sigma-Aldrich, St. Louis, MO, USA) assay was performed as already reported ([Ambrosino et al., 2023]). Untreated cells represented positive control (CTRL+), while cells treated with 100% DMSO represented negative control (CTRL−). Absorbance was recorded at 570 nm, and cell viability was calculated with Equation 1:
(1) %ofcellviability=absorbanceoftreatedcells/absorbanceofuntreatedcellsx100

[8] = Stability of peptides in serum; assay type: in vitro ADME; conditions: 2.0 mg/mL peptide, 37°C; for remaining at 16 h, 2 mg/mL: RP-HPLC peak area vs t0 (100%), mean of duplicates, read-out: Peptide remaining in solution after 16 h in serum
Experimental: Peptide stability in serum was performed as previously reported ([Russo et al., 2021]). Briefly, peptides were diluted in serum to a final concentration of 2.0 mg/mL and incubated at 37°C. Aliquots of each peptide taken at different times up to 16 h were analyzed by RP-HPLC on an Aeris PEPTIDE XB-C18 column (2.1 × 100 mm, 3.6 μm). Peptide concentrations in solution were determined from RP-HPLC peak areas compared to peak areas obtained at t0 (set as 100%).

[9] = test system: K. pneumoniae 1711 (KPC, class A); test: Broth microdilution MIC/MBC, clinical isolate; assay type: cell-based, Klebsiella pneumoniae; conditions: clinical isolate 1711, KPC; for MIC: rectal swab, broth microdilution, 95% growth inhibition
Experimental: as §1, §2

[10] = test system: K. pneumoniae 1745 (KPC, class A); test: Broth microdilution MIC/MBC, clinical isolate; assay type: cell-based, Klebsiella pneumoniae; conditions: clinical isolate 1745, KPC; for MIC: ulcer, broth microdilution, 95% growth inhibition; for MBC: killing 99.9% after 18 h
Experimental: as §1, §2

[11] = test system: several strains of K. pneumoniae KPC-producers; test: MIC/MBC summarised over the clinical isolates; assay type: cell-based, Klebsiella pneumoniae; conditions: summary over strains 311, 1746, 1745, 1711
Experimental: as §1, §2

[12] = test system: K. pneumoniae 311 (OXA-48, class D); test: Broth microdilution MIC/MBC, clinical isolate; assay type: cell-based, Klebsiella pneumoniae
Experimental: as §1, §2

C[C@@H](O)[C@H]1C(=O)N2C(C(=O)O)=C(S[C@@H]3CN[C@H](C(=O)N(C)C)C3)[C@H](C)[C@H]12 [meropenem]
5 µg/mL: MIC (K. pneumoniae; Klebsiella pneumoniae, checkerboard, 2 × 10^5 CFU/mL, 24 h, 37°C, read-out: MIC of meropenem alone)
0.62 µg/mL: MIC of meropenem in combination (K. pneumoniae; combined with 3 μM of pantinin 1, checkerboard, 24 h, 37°C)

FLSTIWNGIKSLL-NH2 [Pantinin 3]
~80%: remaining at 16 h, 2 mg/mL [8]
10%: Cell viability [7]
25 µM: MIC (K. pneumoniae ATCC 10031) | MIC [2] | MBC [2] | MIC [4]
12.5 µM: MIC [3]
50 µM: MIC [1] | MIC (S. thyphimurium) | MIC (E. coli ATCC 11229) | MIC [5] | MIC [6]

IFGAIWKGISSLL-NH2 [Pantinin 2]
6.25 µM: MIC [4]
25 µM: MIC [1] | MIC (E. coli ATCC 11229) | MBC (E. coli ATCC 11229)
50 µM: MBC ([1]; killing 99.9% after 18 h) | MIC [9] | MIC [10] | MBC [10] | MIC (S. thyphimurium) | MBC (S. thyphimurium) | MIC [5] | MIC [6]
12.5 µM: MIC (K. pneumoniae ATCC 10031) | MBC (K. pneumoniae ATCC 10031) | MIC [2] | MBC [2] | MIC [3] | MBC [3] | MBC [4]
25%: Cell viability [7]
~70%: remaining at 16 h, 2 mg/mL [8]

GILGKLWEGFKSIV-NH2 [Pantinin 1]
25 µM: MIC against the tested clinical K. pneumoniae strains [11] | MIC [1] | MIC [9] | MBC ([9]; killing 99.9% after 18 h) | MIC [10] | MBC [10] | MIC ([12]; clinical isolate 311, OXA-48, rectal swab, broth microdilution, 95% growth inhibition) | MBC ([12]; clinical isolate 311, OXA-48, killing 99.9% after 18 h) | MBC [2] | MBC (E. coli ATCC 11229) | MIC [5] | MBC ([5]; lowest concentration killing 99.9% of the bacterial load after 18 h at 37°C on MHA)
12.5 µM: MBC (K. pneumoniae ATCC 10031) | MIC [2] | MIC (E. coli ATCC 11229) | MBC [4]
0.624: FICI (K. pneumoniae; pantinin 1 (3 μM) with meropenem (0.62 μg/mL))
50 µM: MIC (S. thyphimurium) | MBC (S. thyphimurium) | MIC [6]
stable: Stability in serum in the time interval analysed ([8]; up to 16 h, RP-HPLC peak area vs t0, duplicates)
6.25 µM: MIC (K. pneumoniae ATCC 10031) | MIC [3] | MBC [3] | MIC [4]
approximately 70%: Cell viability [7]
